Drawing on patent publication US10266526B2, “Substituted 1,2,3-triazoles as SMYD inhibitors for treating cancer” (EPIZYME, INC., priority 2014, dated 2019), this text covers IC50 for 19 molecules.

Counter-ions that a name gives are not always drawn. Where only a bound is given, the exact number is not on record here.

The target in assay [1] is T1, SMYD3 (Homo sapiens (Human), UniProt Q9H7B4). The assay can be described thus: SMYD3 biochemical assay (SMYD3 enzyme assay on MEKK2 protein substrate, 3H-SAM scintillation proximity assay). The following applies: read-out: SMYD3 Biochem IC50. An outline of the steps:
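Native full-length human SMYD3, expressed in E. coli, was preincubated with compound for 30 min at room temperature in 25 mM Tris-Cl pH 8.0, 1 mM TCEP, 0.005% BSG and 0.005% Tween 20. ³H-SAM plus GST-MEKK2 then started the reaction. It was stopped with unlabeled SAM (100 uM final), and methylated MEKK2 was read by SPA.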

Assay [2] concerns the target T1, SMYD3. Put plainly: SMYD3 cell assay (Trimethyl-MEKK2 In-Cell Western in 293T/17 cells transfected with MEKK2-flag and SMYD3). The format is cell-based. From the text: Trimethyl-MEKK2-in-Cell Western Assay
MEM/Glutamax medium, Optimem Reduced Serum medium, penicillin-streptomycin, 0.05% trypsin and 1×D-PBS were purchased from Life Technologies, Grand Island, N.Y., USA. PBS-10× was purchased from Ambion, Life Technologies, Grand Island, N.Y., USA. PBS with Tween 20 (PBST (10×)) was purchased from KPL, Gaithersburg, Md., USA. Tet System FBS-approved FBS US Source was purchased from Clontech, Mountain View, Calif., USA. Odyssey blocking buffer, 800CW goat anti-rabbit IgG (H+L) antibody, 680CW Goat anti-mouse IgG (H+L) and Licor Odyssey infrared scanner were purchased from Licor Biosciences, Lincoln, Nebr., USA. Tri-methyl-Lysine [A260]-MEKK2 antibody, MEKK2 and SMYD3 plasmids were made at Epizyme. Anti-flag monoclonal mouse antibody was purchased from Sigma, St. Louis, Mo., USA. Methanol was purchased from VWR, Franklin, Mass., USA. 10% Tween 20 was purchased from KPL, Inc., Gaithersburg, Md., USA. Fugene was purchased from Promega, Madison, Wis., USA. The Biotek ELx405 was purchased from BioTek, Winooski, Vt., USA. The multidrop combi was purchased from Thermo Scientific, Waltham, Mass., USA.
Cell Treatment, in Cell Western (ICW) for Detection of Trimethyl-Lysine-MEKK2 and MEKK2.
Plasmids were prepared for delivery to cells by first mixing 1350 μL Opti-MEM with Fugene (81 μL) in a sterile Eppendorf and incubated for five minutes at room temperature (RT). […] Entire volume of Opti-MEM/Fugene mixture was then added to a microfuge tube containing DNA plasmid, mixed and then incubated ×15 minutes at RT. […] Medium was then removed, and cells were washed once with PBS in the flask. Trypsin 0.05% (3 mL) was added and cells incubated for three minutes. Room temperature MEM+10% Tet system FBS was added and cells were mixed gently, and counted using the Vi-cell. Cells were seeded at 100,000 cells/mL in 50 μL MEM/10% Tet FBS/Pen/Strep to a 384 well black/clear poly-D-lysine coated plate containing test agent diluted in DMSO. The final top concentration of test compound was 40 μM. […] Plates were incubated ×30 minutes at RT in low-airflow area, followed by incubation at 37° C. under 5% CO2 for 24 hours. Medium was aspirated from all wells of assay plates prior to fixation and permeabilization with ice cold (−20° C.) methanol (90 μL/well) for ten minutes. Plates were rinsed with PBS three times on BioTek ELx405. PBS was removed with a final aspiration, and Odyssey blocking buffer (50 μL/well) was added to each well and incubated for one hour at RT. Primary antibody solution was prepared (anti-trimethyl-MEKK2 at 1:600 dilution plus mouse anti-flag antibody at 1:10,000 dilution in diluent (Odyssey Blocking buffer+0.1% Tween 20)) and 20 μL per well was dispensed using the Multidrop Combi. Assay plates were then sealed with foil, and incubated overnight at 4° C. Plates were washed five times with PBS-Tween (1×) on Biotek ELx405 and blotted on paper towel to remove excess reagent.
First, the ratio for each well was determined by:
Each plate included fourteen control wells of DMSO only treatment (Minimum Inhibition) as well as fourteen control wells for maximum inhibition (Background). The average of the ratio values for each control type was calculated and used to determine the percent inhibition for each test well in the plate. Reference compound was serially diluted two-fold in DMSO for a total of nine test concentrations, beginning at 40 μM. Percent inhibition was calculated (below).
Non-linear regression curves were generated to calculate the IC50 and dose-response relationship using triplicate wells per concentration of compound.

The mark [3] stands for this setting: Table 3A, average of n = 1 to n = 50.
The mark [4] stands for this setting: Table 3A, average of n = 1 to n = 50, read-out: SMYD3 cell IC50.

T1 sequence (Q9H7B4 whole entry): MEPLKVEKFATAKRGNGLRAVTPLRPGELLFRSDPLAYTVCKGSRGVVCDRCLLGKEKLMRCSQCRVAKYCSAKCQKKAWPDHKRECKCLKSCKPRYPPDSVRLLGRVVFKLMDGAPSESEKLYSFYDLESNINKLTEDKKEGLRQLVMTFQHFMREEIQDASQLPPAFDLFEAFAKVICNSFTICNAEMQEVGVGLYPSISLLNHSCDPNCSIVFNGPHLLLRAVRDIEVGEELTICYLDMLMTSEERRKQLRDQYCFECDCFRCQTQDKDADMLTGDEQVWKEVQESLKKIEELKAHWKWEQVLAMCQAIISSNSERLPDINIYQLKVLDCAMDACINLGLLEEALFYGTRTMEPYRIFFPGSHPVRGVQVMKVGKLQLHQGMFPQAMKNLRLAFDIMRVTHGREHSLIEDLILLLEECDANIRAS

In the case of `CN1CCC(CS(=O)(=O)N2[C@@H]3CC[C@H]2C[C@@H](NC(=O)c2ccc4c(c2)OC(F)(F)O4)C3)CC1` [compound 630, 2,2-difluoro-N-((1R,3r,5S)-8-(((1-methylpiperidin-4-yl)methyl)sulfonyl)-8-azabicyclo[3.2.1]octan-3-yl)benzo[d][1,3]dioxole-5-carboxamide], the results for the half-maximal inhibitory concentration (IC50) at SMYD3 [1] (setting [3]) and on SMYD3 [2] (setting [4]) were 361 nM and 6550 nM, respectively.
The matching figures for `C[C@H]1CC(NC(=O)c2ccc3c(c2)CC(=O)N3)CCN1S(=O)(=O)c1ccc(C(C)(C)N)cc1` (stereo partly drawn) [compound 584, N-((2S)-1-((4-(2-aminopropan-2-yl)phenyl)sulfonyl)-2-methylpiperidin-4-yl)-2-oxoindoline-5-carboxamide]: 1.47 nM and 653 nM.
`N[C@H]1CC[C@H](S(=O)(=O)N2[C@@H]3CC[C@H]2C[C@@H](NC(=O)c2ccc4c(c2)CC(=O)N4)C3)CC1` [compound 575, N-((1R,3R,5S)-8-(((1r,4R)-4-aminocyclohexyl)sulfonyl)-8-azabicyclo[3.2.1]octan-3-yl)-2-oxoindoline-5-carboxamide]: the IC50 – broadly, the point on the concentration scale where inhibition reaches its midpoint – on SMYD3 [1] is 0.44 nM; at SMYD3 [2] (setting [4]) it was 2170 nM.
Regarding `C[C@H]1C[C@@H](NC(=O)c2cnn(C3CC3)c2)CCN1S(=O)(=O)N1CCC(N)CC1` [compound 639, N-((2S,4S)-1-((4-aminopiperidin-1-yl)sulfonyl)-2-methylpiperidin-4-yl)-1-cyclopropyl-1H-pyrazole-4-carboxamide], the IC50 on SMYD3 [1] (setting [3]) is 1000 nM; at SMYD3 [2] (setting [4]) it was at least 10000 nM.
On to `O=C(N[C@H]1C[C@H]2CC[C@@H](C1)N2S(=O)(=O)CC1CCNCC1)c1ccc2c(c1)OC(F)(F)O2` [compound 628, 2,2-difluoro-N-((1R,3r,5S)-8-((piperidin-4-ylmethyl)sulfonyl)-8-azabicyclo[3.2.1]octan-3-yl)benzo[d][1,3]dioxole-5-carboxamide], for which the IC50 was 232 nM on SMYD3 [1] (setting [3]) and 3620 nM at SMYD3 [2] (setting [4]).
Turning to `CCc1cc(C(=O)N[C@H]2CCN(S(=O)(=O)N3CCC(N)CC3)[C@@H](C)C2)ns1` [compound 605, N-((2S,4S)-1-(4-aminopiperidin-1-ylsulfonyl)-2-methylpiperidin-4-yl)-5-ethyl-1,2-thiazole-3-carboxamide Hydrochloride], the IC50 on SMYD3 [1] was 15.4 nM; at SMYD3 [2] (setting [4]), 201 nM.
Take `C[C@@H]1CN(S(=O)(=O)N2CCC(N)CC2)CC[C@@H]1NC(=O)c1cc2c(cc1Cl)NC(=O)C2` [compound 634, N-((3R,4S)-1-((4-aminopiperidin-1-yl)sulfonyl)-3-methylpiperidin-4-yl)-6-chloro-2-oxoindoline-5-carboxamide]: the IC50 at SMYD3 [1] (setting [3]) was 529 nM; on SMYD3 [2] (setting [4]), 972 nM.
With `CCc1cccc(C(=O)N[C@H]2C[C@H]3CC[C@@H](C2)N3S(=O)(=O)CC2CCNCC2)c1` [compound 635, 3-ethyl-N-((1R,3r,5S)-8-((piperidin-4-ylmethyl)sulfonyl)-8-azabicyclo[3.2.1]octan-3-yl)benzamide], the IC50 on SMYD3 [1] (setting [3]) is 620 nM; on SMYD3 [2] (setting [4]), at least 10000 nM.
For `C[C@H]1C[C@@H](NC(=O)c2ccc3c(c2)CC(=O)N3)CCN1S(=O)(=O)CC1CCNCC1` [compound 599, N-((2S,4S)-2-methyl-1-((piperidin-4-ylmethyl)sulfonyl)piperidin-4-yl)-2-oxoindoline-5-carboxamide], the 50% inhibitory concentration (IC50) came out at 4.42 nM at SMYD3 [1] (setting [3]) and 9490 nM at SMYD3 [2] (setting [4]).
On to `CNC1CCN(S(=O)(=O)N2[C@@H]3CC[C@H]2C[C@@H](NC(=O)c2ccc4c(c2)CC(=O)N4)C3)CC1` [compound 589, N-((1R,3r,5S)-8-((4-(methylamino)piperidin-1-yl)sulfonyl)-8-azabicyclo[3.2.1]octan-3-yl)-2-oxoindoline-5-carboxamide], for which the results for the IC50 at SMYD3 [1] (setting [3]) and on SMYD3 [2] (setting [4]) were 2.13 nM and 987 nM, respectively.
Turning to `Cc1cc2c(cc1C(=O)N[C@H]1C[C@H]3CC[C@@H](C1)N3S(=O)(=O)N1CCC(N)CC1)CC(=O)N2` [compound 606, N-((1R,3r,5S)-8-((4-aminopiperidin-1-yl)sulfonyl)-8-azabicyclo[3.2.1]octan-3-yl)-6-methyl-2-oxoindoline-5-carboxamide], the IC50 is 15.6 nM on SMYD3 [1] (setting [3]) and 1790 nM on SMYD3 [2] (setting [4]).
Consider `NCCCS(=O)(=O)N1CCC(NC(=O)c2ccc3c(c2)CC(=O)N3)CC1` [compound 624, N-(1-((3-aminopropyl)sulfonyl)piperidin-4-yl)-2-oxoindoline-5-carboxamide], for which the IC50 on SMYD3 [1] (setting [3]) is 159 nM; on SMYD3 [2] (setting [4]), at least 10000 nM.
Regarding `C[C@H]1C[C@@H](NC(=O)c2nnc(C3CC3)s2)CCN1S(=O)(=O)N1CCC(N)CC1` [compound 607, N-((2S,4S)-1-((4-aminopiperidin-1-yl)sulfonyl)-2-methylpiperidin-4-yl)-5-cyclopropyl-1,3,4-thiadiazole-2-carboxamide], the IC50 came to 18.1 nM at SMYD3 [1] (setting [3]) and 205 nM at SMYD3 [2] (setting [4]).
In the case of `NC1CCN(S(=O)(=O)N2[C@@H]3CC[C@H]2C[C@@H](NC(=O)c2ccc4c(c2)OCC(=O)N4)C3)CC1` [compound 636, N-((1R,3r,5S)-8-((4-aminopiperidin-1-yl)sulfonyl)-8-azabicyclo[3.2.1]octan-3-yl)-3-oxo-3,4-dihydro-2H-benzo[b][1,4]oxazine-7-carboxamide], the IC50 on SMYD3 [1] (setting [3]) is 819 nM; against SMYD3 [2] it was at least 10000 nM.
Consider `O=C1Cc2cc(C(=O)N[C@H]3C[C@H]4CC[C@@H](C3)N4S(=O)(=O)CC3CCCNC3)ccc2N1` (stereo partly drawn) [compound 590, 2-oxo-N-((1R,3r,5S)-8-((piperidin-3-ylmethyl)sulfonyl)-8-azabicyclo[3.2.1]octan-3-yl)indoline-5-carboxamide], for which the figures for the IC50 on SMYD3 [1] and at SMYD3 [2] (setting [4]) were 2.14 nM and 768 nM, respectively.
For the molecule `CN(C)C1CCN(S(=O)(=O)N2[C@@H]3CC[C@H]2C[C@@H](NC(=O)c2ccc4c(c2)CC(=O)N4)C3)CC1` [compound 593, N-((1R,3r,5S)-8-((4-(dimethylamino)piperidin-1-yl)sulfonyl)-8-azabicyclo[3.2.1]octan-3-yl)-2-oxoindoline-5-carboxamide], the IC50 was 2.89 nM on SMYD3 [1] (setting [3]) and 500 nM on SMYD3 [2] (setting [4]).
Regarding `NC1CCN(S(=O)(=O)N2[C@@H]3CC[C@H]2C[C@@H](NC(=O)c2ccc4c(c2)CC(=O)N4)C3)CC1` [compound 578, N-((1R,3r,5S)-8-((4-aminopiperidin-1-yl)sulfonyl)-8-azabicyclo[3.2.1]octan-3-yl)-2-oxoindoline-5-carboxamide], the results for the IC50 at SMYD3 [1] and on SMYD3 [2] (setting [4]) were 0.68 nM and 854 nM, respectively.
With `NC1CCN(S(=O)(=O)N2[C@@H]3CC[C@H]2C[C@@H](NC(=O)c2ccc4c(c2)OC(F)(F)O4)C3)CC1` [compound 626, N-((1R,3r,5S)-8-((4-aminopiperidin-1-yl)sulfonyl)-8-azabicyclo[3.2.1]octan-3-yl)-2,2-difluorobenzo[d][1,3]dioxole-5-carboxamide], the IC50 is 222 nM on SMYD3 [1] (setting [3]) and 2970 nM at SMYD3 [2] (setting [4]).
As to `O=C1Cc2cc(C(=O)N[C@H]3C[C@H]4CC[C@@H](C3)N4S(=O)(=O)CC3CCNCC3)ccc2N1` [compound 597, 2-oxo-N-((1R,3r,5S)-8-((piperidin-4-ylmethyl)sulfonyl)-8-azabicyclo[3.2.1]octan-3-yl)indoline-5-carboxamide], the IC50 at SMYD3 [1] (setting [3]) stood at 3.98 nM; at SMYD3 [2] (setting [4]) it was 3440 nM.
